Like-named read-outs stand apart in the source and are kept apart here.
Key:
[1] = tested on: HIV-IIIb; experiment: Antiviral assay in MT4 cells; assay type: cell-based; conditions: read-out: EC50
Summary of the method: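 MT4 cells infected with HIV-IIIb (0.004 m.o.i.) or mock-infected, then plated at 2000 cells per well with compound. After 5 days at 37 °C, cell viability read by CellTiter-Glo chemiluminescence.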

[2] = tested on: MT4 cells; experiment: Cytotoxicity (CC50) in MT4 cells, mock-infected; assay type: cell-based; conditions: 5 days
Summary of the method: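 Uninfected MT4 cells, 2000 per well, incubated with compound 5 days at 37 °C. Viability by CellTiter-Glo luminescence after 2–3 min lysis at room temperature.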

[3] = molecular target: PXR (NR1I2) (Homo sapiens (Human), UniProt O75469); experiment: Human PXR activation assay (luciferase reporter, DPX2 cells); assay type: cell-based; conditions: human; 15 uM; DPX2 cells; % Emax relative to rifampicin, adjusted for DMSO background; read-out: PXR % inh at 15 uM (adjusted)
Experimental: (§1) Luciferase Reporter Gene Assay.
(§2) A stably transformed tumor cell line (DPX2) was plated on 96-well microtiter plates. […]. The number of viable cells was determined and the reporter gene activity was assessed. […]

[4] = molecular target: OCT2 (Homo sapiens (Human), UniProt O15244); experiment: OCT2 inhibition assay (14C-TEA uptake, OCT2-transfected MDCKII cells); assay type: cell-based
Experimental: MDCKII cells were maintained in minimal essential medium (MEM) with 1% Pen/Strep, 10% fetal bovine serum, and 0.25 mg/mL hygromycin B in an incubator set at 37° C., 90% humidity and 5% CO2. 24 hours prior to assay, media containing 5 mM sodium butyrate were added to MDCKII cells in flasks, and cells were grown to 80-90% confluence. On assay day, cells were trypsinized and resuspended in Krebs-Henseleit Buffer (KHB), pH 7.4 at […]. Cells were preincubated for 15 min in assay plate before addition of test compound or substrate.
Test compounds were serially diluted in DMSO and then spiked (2 μL) into in 0.4 mL KHB buffer containing wild-type or OCT2-transfected cells and incubated for 10 minutes. Assay was initiated with the addition of 0.1 mL of 100 μM ^14C-TEA in KHB buffer (20 μM final concentration after mixing). The concentration of TEA is based on the Km. After 10 minutes of incubation, the assay mixture was quenched with addition of 0.5 mL of ice-cold 1×PBS buffer. Samples were then centrifuged at 1000 rpm for 5 min and supernatants were removed. Wash steps were repeated four times with ice-cold PBS. Finally, the cell pellets were lysed with 0.2N NaOH and let sit at room temperature for at least 30 min to ensure complete lysis. Samples were then counted on liquid scintillation counter and dpm counts were used to perform the following calculations. The % inhibition was calculated as follows: % inhibition=[1−{[OCT2]i−[WT]ni}/{[OCT2]ni−[WT]ni}]*100 where, [OCT2]i represents the dpm count in the presence of test compound for either OCT2 cells, […] of test compound for OCT2 cells and [WT]ni represents the dpm count in the absence of test compound for wild type cells, respectively.

[5] = molecular target: human PXR (Homo sapiens (Human), UniProt O75469); experiment: Human PXR activation assay (luciferase reporter, DPX2 cells); assay type: cell-based; conditions: 15 uM; DPX2 cells; % Emax relative to rifampicin, adjusted for DMSO background
Experimental: as §1, §2

[6] = Pharmacokinetics after intravenous infusion to male SD rats; assay type: in vivo; conditions: Sprague-Dawley, plasma, rat, IV infusion 0.5 mg/kg
Experimental: (§3) Pharmacokinetic analysis was performed on compounds 25b and 39 following intravenous or oral administration to rats.
(§4) The test compounds were formulated in 5% Ethanol, 55% PEG 300, and 40% water at 0.1 mg/mL for IV infusion and for oral dosing.
(§5) Each dosing group consisted of 3 male, Sprague-Dawley rats. At dosing, the animals weighed an average of 0.25 kg. The animals were fasted overnight prior to dose administration and up to 4 hr after dosing.
(§6) For the IV infusion group, the test article was administered by intravenous infusion over 30 min. The rate of infusion was adjusted according to the body weight of each animal to deliver a dose of 0.5 mg/kg. For the oral dosing group, the test article was administered by oral gavage at 5 mL/kg for a dose of 0.5 mg/kg.
For pharmacokinetic analysis of intravenously administered compounds, serial venous blood samples (approximately 0.3 mL each) were taken from each animal at 0, 0.250, 0.483, 0.583, 0.750, 1.50, 3.00, 6.00, 8.00, 12.0, 24.0, 48 and 72 hours after dosing. The blood samples were collected into Vacutainer™ tubes containing EDTA-K2 as the anti-coagulant and were immediately placed on wet ice pending centrifugation for plasma. An LC/MS/MS method was used to measure the concentration of the test compound in plasma. An aliquot of 50 μL of each plasma sample was added to a clean 96 well plate, and 200 μL of cold acetonitrile/internal standard solution (ACN)/(ISTD) was added. After protein precipitation, an aliquot of 110 μL of the supernatant was transferred to a clean 96-well plate and diluted with 300 μL of water. An aliquot of 10 μL of the above solution was injected into a ABSciex API-4000 triple quadrupole LC/MS/MS system utilizing a HyPurity C18 HPLC column (30×2.1 mm, 3μ), from Thermo-Hypersil (Part #22103-032130). An Agilent 1200 series binary pump (P/N G1312A Bin Pump) was used for elution and separation, and an HTS Pal autosampler (LEAP Technologies, Carrboro, N.C.) was used for sample injection. A API-4000 triple quadrupole mass spectrometer was utilized in multiple reaction monitoring mode (Applied Biosystems, Foster City, Calif.). Liquid chromatography was performed using two mobile phases: mobile phase A contained 0.1% formic acid and 1% isopropylamine in aqueous solution, and mobile phase B contained […]. Non-compartmental pharmacokinetic analysis was performed on the plasma concentration-time data. The resulting data are shown in the first three columns of Table 2. In Table 2, Cl refers to clearance, which characterizes the rate at which drug is removed from plasma. The lower the clearance of a drug is, the longer the elimination half-life is in the body. Vss refers to the steady state volume of distribution and indicates how well a drug is distributed into the tissues. The larger the Vss is, the longer the elimination half-life is in the body. MRT refers to mean residence time, which is a measure of the average time molecules exist in the body.

[7] = Pharmacokinetics after oral administration to male SD rats; assay type: in vivo; conditions: Sprague-Dawley, plasma, rat, oral gavage 0.5 mg/kg, solution, read-out: % F (solution)
Experimental: as §3, §4, §5, §6
For pharmacokinetic analysis of orally administered compounds, serial venous blood samples (approximately 0.3 mL each) were taken from each animal at time points of 0, 0.25, 0.50, 1.0, 2.0, 4.0, 6.0, 8.0, 12.0 24.0, 48.0 and 72 hours after dosing. Blood samples were collected, prepared and analyzed in a similar way to the intravenous studies described above. Non-compartmental pharmacokinetic analysis was performed on the plasma concentration-time data. In Table 2, F (%) refers to oral bioavailability.

[8] = tested on: HIV-1 E138K/Q148K; assay type: cell-based; conditions: MT2 cells; mean EC50 mutant / mean EC50 wt
Experimental: (§7) For the antiviral assay utilizing MT-2 cells, 50 μL of 2× test concentration of 3-fold serially diluted compound in culture medium with 10% FBS was added to each well of a 96-well plate (9 concentrations) in triplicate. MT-2 cells were infected with wild-type or mutant variants of HIV-1 for 3 hours using a volume of viral inoculum determined to produce 90% cell killing. Fifty microliters of infected cell suspension in culture medium with 10% FBS (˜1.5×10^4 cells) was then added to each well containing 50 μL of serially diluted compound. The plates with HIV-infected cultures were then incubated at 37° C. for 5 days in the presence of the tested compounds. After 5 days of incubation, 100 μL of CellTiter-Glo™ Reagent (catalog # G7571, Promega Biosciences, Inc., Madison, Wis.) was added to each well. Cell lysis was carried out by incubating at room temperature for 10 min followed by a chemiluminescence read-out.
(§8) The chemiluminescence readout from the 10-point antiviral dose response was analyzed directly by curve fitting with equation (I) to determine the EC50.
(§9) where y=Cell Survival, M=maximum cell survival enabled by drug protection, H=baseline cell survival without drug protection, n=Hill coefficient of the antiviral dose response, m=Hill coefficient of the cytotoxicity dose response, and [I]=inhibitor concentration.
(§10) EC50 values (mean±standard deviation) were calculated from at least three independent experiments performed in triplicate. The fold-change in antiviral activity of tested compounds was calculated as a ratio of the mean EC50 for each mutant virus divided by the mean EC50 of the control WT virus.

[9] = tested on: HIV-1 E92Q/N155H; assay type: cell-based; conditions: MT2 cells; mean EC50 mutant / mean EC50 wt
Experimental: as §7, §8, §9, §10

[10] = tested on: HIV-1 G140S/Q148R; assay type: cell-based; conditions: MT2 cells; mean EC50 mutant / mean EC50 wt
Experimental: as §7, §8, §9, §10

[11] = tested on: HIV-1 N155H/Q148R; assay type: cell-based; conditions: MT2 cells; mean EC50 mutant / mean EC50 wt
Experimental: as §7, §8, §9, §10

[12] = tested on: wild-type HIV-1; experiment: Antiviral assay in MT-2 cells, wild-type HIV-1; assay type: cell-based; conditions: Human immunodeficiency virus 1, 120 h; MT2 cells, wild-type HIV-1, 5 days; read-out: wt
Experimental: as §7, §8, §9, §10

[13] = Plasma protein binding (equilibrium dialysis); assay type: in vitro ADME; conditions: human, plasma (sodium EDTA) dialysed against buffer; 2 μM in plasma vs. buffer, 24 hours at 37° C.; read-out: % Free HP/Buffer
Experimental: Plasma protein binding was determined using a HTD96b equilibrium dialyzer with a plate base, stainless steel pressure plate and Teflon bock. 9 Teflon bars, labeled sequentially from A through I, were assembled with two stainless steel connecting rods. Membranes were placed between two Teflon bars, with the membrane placed approximately 2 mm below the top edge of the bar and the lower membrane edge overlapped the bottom of all wells. The membrane was soaked for about 20 minutes in water, about 20 minutes in ethanol (30/70 v/v) and rinsed with water three times to remove the ethanol. It was soaked in PBS for at least 30 minutes. Plasma in sodium EDTA (Bioreclamation or equivalent) was used. The Plasma (not pH-adjusted) was stored at −80° C. and thawed at room temperature before use. The stock solution of the compounds tested was at 200 μM in DMSO. The quench solution used was 50 nM of an internal standard in 100% ACN. To prepare a 2 μM solution of the compound tested in plasma, 5 μL of a 200 μM stock solution was added to 495 μL of blank plasma. 100 μL plasma was added with 2 μM of test compound into one side of the well. 100 μL of buffer (for plasma vs. buffer) was added into another side of the well. The 96-well plate was covered using an adhesive sealing film and incubated for 24 hours at 37° C. under slow rotation. This procedure was replicated for each compound. 50 μL of plasma sample was put into a 96 well plate, 50 μL of buffer was added. 50 μL of buffer was put into a 96 well plate. 50 μL of plasma was added. 300 μL of quench solution was added and the plate sealed and shaken for 15 minutes. The material was centrifuged for 30 minutes at 3000 RPM and ˜250 μL was transferred into a short plate. The samples were analyzed by LC/MS. The resulting data is shown in the last row of Table 3 as “% Free” which corresponds to the percentage of compound not protein bound.

Sequence of PXR (NR1I2) (O75469 whole entry): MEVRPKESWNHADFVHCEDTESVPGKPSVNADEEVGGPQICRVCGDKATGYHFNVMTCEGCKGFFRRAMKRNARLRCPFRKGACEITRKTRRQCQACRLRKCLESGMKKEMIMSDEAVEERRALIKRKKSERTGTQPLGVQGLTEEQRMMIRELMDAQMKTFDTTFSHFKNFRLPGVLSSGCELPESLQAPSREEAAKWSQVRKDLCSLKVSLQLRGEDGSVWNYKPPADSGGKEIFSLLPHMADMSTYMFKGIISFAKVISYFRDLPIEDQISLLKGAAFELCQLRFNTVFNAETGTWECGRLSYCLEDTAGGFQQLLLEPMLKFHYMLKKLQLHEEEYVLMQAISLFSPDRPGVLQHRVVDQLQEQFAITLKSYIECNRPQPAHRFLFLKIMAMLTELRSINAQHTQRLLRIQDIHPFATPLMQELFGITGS
Sequence of human PXR (O75469 whole entry): as above
Sequence of OCT2 (O15244 whole entry): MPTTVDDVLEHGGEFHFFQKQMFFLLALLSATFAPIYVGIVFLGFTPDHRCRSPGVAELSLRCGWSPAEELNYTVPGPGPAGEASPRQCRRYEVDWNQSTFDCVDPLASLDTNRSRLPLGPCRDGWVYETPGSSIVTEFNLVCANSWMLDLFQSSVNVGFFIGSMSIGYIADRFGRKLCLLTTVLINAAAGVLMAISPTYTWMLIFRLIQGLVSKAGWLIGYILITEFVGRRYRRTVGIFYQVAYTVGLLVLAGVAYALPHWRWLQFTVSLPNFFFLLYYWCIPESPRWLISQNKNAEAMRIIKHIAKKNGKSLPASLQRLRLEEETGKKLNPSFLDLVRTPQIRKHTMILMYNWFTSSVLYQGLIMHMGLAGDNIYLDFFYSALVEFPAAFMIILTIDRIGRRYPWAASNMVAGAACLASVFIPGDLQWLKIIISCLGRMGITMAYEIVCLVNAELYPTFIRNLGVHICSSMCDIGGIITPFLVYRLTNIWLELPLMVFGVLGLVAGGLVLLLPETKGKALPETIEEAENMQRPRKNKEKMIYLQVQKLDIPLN

Row | Compound | EC50 ([1]; MT4 cells, HIV-IIIb, 5 days) [µM] | CC50 [2] [µM] | inhibition at 24 h, 15 µM [3] [%] | EC50 [1] [µM] | IC50 [4] [µM] | PXR % inh at 15 uM (adjusted) [5] [%] | MRT [6] [h] | clearance [6] [mL/min/kg] | Vd ([6]; read-out: Vss) [L/kg] | bioavailability [7] [%] | Resistance fold shift E138K/Q148K vs. wild type [8] [fold shift] | Resistance fold shift E92Q/N155H vs. wild type [9] [fold shift] | Resistance fold shift G140S/Q148R vs. wild type [10] [fold shift] | Resistance fold shift N155H/Q148R vs. wild type [11] [fold shift] | EC50 [12] [µM] | fraction unbound at 24 h, 2 µM [13]
1 | CN1C(=O)c2c(O)c(=O)c(C(=O)NCc3c(F)cc(F)cc3F)cn2[C@@H]2CCCC[C@@H]21 [Compound 4] | 0.00253 | 10.5 | 65 |  |  |  |  |  |  |  |  |  |  |  |  | 
2 | O=C(NCc1c(F)cc(F)cc1F)c1cn2c(c(O)c1=O)C(=O)N(CC(F)(F)F)[C@@H]1COCC[C@@H]12 [Compound 32] |  | 57.1 |  | 0.0038 | 10 | 19 |  |  |  |  |  |  |  |  |  | 
3 | C[C@@H]1CCO[C@H]2Cn3cc(C(=O)NCc4ccc(F)cc4F)c(=O)c(O)c3C(=O)N12 [Dolutegravir, reference compound] |  |  |  |  |  |  | 12.4 | 0.167 | 0.17 | 84 | 8.2 | 1.9 | 3.7 | 2.5 | 0.0017 | 0.01

Reference: patent publication US9795602B2, “Polycyclic-carbamoylpyridone compounds and their pharmaceutical use” (Gilead Sciences, Inc., priority 2014, dated 2017)
